Like-named read-outs stand apart in the source and are kept apart here.
Legend:
[1] = cited from earlier work
[2] = Inhouse trials: Arsenic Trioxide in glycerin with sodium hydroxide; type: physicochemical; details: dissolved first in sodium hydroxide solution, then added to Glycerin

Arsenic Trioxide
solubility of Arsenic Trioxide in 100 g of water ([1]; 0° C.): 1.2 g
solubility of Arsenic Trioxide in 100 g of water ([1]; 25° C.): 2.1 g
solubility of Arsenic Trioxide in 100 g of water ([1]; 75° C.): 5.6 g
solubility in alcohol, chloroform, and ether [1]: insoluble
concentrated solution of Arsenic Trioxide formed in presence of Glycerin [2]: 157400 µg/mL

Source: patent US11583552B2, “Pharmaceutical formulation of arsenic trioxide” (priority 2021, dated 2023)
